The source of these data is US12398117B2, “Heteroarylamidopyridinol derivative and pharmaceutical composition comprising same as active ingredient for prevention or treatment of autoimmune disease” (INNOVO THERAPEUTICS INC., priority 2019, dated 2025).

Molecules are shown by their SMILES.

Test [1] has as its system adhesion of intestinal epithelial cells (HT-29) and monocytic cells (U937) induced by TNF-α. In words: Inhibition of TNF-α-induced adhesion of monocytes and intestinal epithelial cells. Format: cell-based, human. Conditions: for inhibition at 1 µM: Homo sapiens, read-out: Inhibitory activity (%). The procedure:
HT-29 human colon cancer-derived epithelial cells and U937 human-derived monocytes were cultured in RPMI 1640 medium containing 10% FBS and 1% penicillin/streptomycin (PS) in a 37° C., 5% CO2 incubator. When the cells grew more than 80% of the bottom area of the culture flask, they were passaged at a ratio of 1:3 and used in this experiment. HT-29 cells were cultured in a 24-well plate at the density of 2×10^5 cells/cm^2, and the test drug was pretreated in a medium containing 1% FBS and 1% PS for 1 hour. Thereafter, 10 μg/mL of BCECF-AM was treated thereto and reacted at 37° C. for 30 minutes. U937 cells loaded with BCECF and TNF-α (10 ng/mL) were reacted with HT-29 cells previously treated with the test drug at 37° C. for 3 hours. Upon completion of the reaction, the medium was removed, and the culture flask was washed twice with PBS to remove non-adherent U937 cells. In the next step, the cells were lysed by treating with 0.1% Triton X-100 (0.1 M Tris) and reacted at room temperature for 30 minutes. Then, fluorescence was measured and quantified using a fluostar optima microplate reader (BMG Labtechnologies, Germany) (Carvalho et al., 1996; Thapa et al., 2008).

The subject of test [2] is adhesion of intestinal epithelial cells (HT-29) and monocytic cells (U937) induced by IL-6. The experiment in a line: Inhibition of IL-6-induced adhesion of monocytes and intestinal epithelial cells. It is filed as cell-based, human. As to conditions: for inhibition at 1 µM: Homo sapiens, 3 h, test drug 1 μM, IL-6 10 ng/mL, HT-29/U937, read-out: inhibitory activity (%). The procedure:
The inhibitory activity test for intestinal epithelial cell-monocyte adhesion by IL-6 was performed using the same method as in the case of TNF-α. HT-29 cells were cultured in a 24-well plate at the density of 2×10^5 cells/cm^2, and the test drug was pretreated in a medium containing 1% FBS and 1% PS for 1 hour. Thereafter, 10 μg/mL of BCECF-AM was treated thereto and reacted at 37° C. for 30 minutes. U937 cells loaded with BCECF and IL-6 (10 ng/mL) were reacted with HT-29 cells previously treated with the test drug at 37° C. for 3 hours. Upon completion of the reaction, the medium was removed, and the culture flask was washed twice with PBS to remove non-adherent U937 cells. In the next step, the cells were lysed by treating with 0.1% Triton X-100 (0.1 M Tris) and reacted at room temperature for 30 minutes. Then, fluorescence was measured and quantified using a fluostar optima microplate reader (BMG Labtechnologies, Germany).

The mark [3] stands for this setting: test drug 1 μM, TNF-α 10 ng/mL, HT-29/U937.

For `Cc1nc(NC(=O)c2sc3cc(F)ccc3c2Cl)c(C)c(C)c1OC(=O)c1ccc(Cl)cn1` [XI-14, 6-(3-chloro-6-fluorobenzo[b]thiophene-2-carboxamido)-2,4,5-trimethylpyridin-3-yl 5-chloropicolinate], the inhibition at 1 µM turned out to be 38.1% in test [1] (setting [3]) and 26.8% in test [2].

For `Cc1nc(NC(=O)c2cc3cc(C(F)(F)F)ccc3[nH]2)c(C)c(C)c1O` [Compound X-10, N-(5-hydroxy-3,4,6-trimethylpyridin-2-yl)-5-(trifluoromethyl)-1H-indole-2-carboxamide], the inhibition at 1 µM was ≥ 50% in test [1] (setting [3]) and 47.9% in test [2].

With `Cc1nc(NC(=O)c2cc3cc(Cl)ccc3o2)c(C)c(C)c1O` [Compound X-16, 5-chloro-N-(5-hydroxy-3,4,6-trimethylpyridin-2-yl)benzofuran-2-carboxamide], the inhibition at 1 µM in test [1] (setting [3]) amounted to 25.1%; in test [2], 15.1%.

For the molecule `Cc1nc(NC(=O)c2sc3cc(F)ccc3c2Cl)c(C)c(C)c1OC(=O)c1ccc(F)cc1` [XI-09, 6-(3-chloro-6-fluorobenzo[b]thiophene-2-carboxamido)-2,4,5-trimethylpyridin-3-yl 4-fluorobenzoate], the inhibition at 1 µM is 3.4% in test [1] (setting [3]) and 21.2% in test [2].

Turning to `Cc1nc(NC(=O)c2cc3cc(Cl)ccc3[nH]2)c(C)c(C)c1O` [Compound X-08, 5-chloro-N-(5-hydroxy-3,4,6-trimethylpyridin-2-yl)-1H-indole-2-carboxamide], the inhibition at 1 µM in test [1] (setting [3]) is 31%; in test [2], 21.3%.

For the molecule `COc1ccc(C(=O)Oc2c(C)nc(NC(=O)c3sc4cc(F)ccc4c3Cl)c(C)c2C)cc1` [XI-11, 6-(3-chloro-6-fluorobenzo[b]thiophene-2-carboxamido)-2,4,5-trimethylpyridin-3-yl 4-methoxybenzoate], the inhibition at 1 µM in test [1] (setting [3]) was found to be 77.2%; in test [2], 67%.

In the case of `Cc1nc(NC(=O)c2sc3cc(F)ccc3c2Cl)c(C)c(C)c1OCC(=O)NC(C)C` [XI-03, 3-chloro-6-fluoro-N-(5-(2-(isopropylamino)-2-oxoethoxy)-3,4,6-trimethylpyridin-2-yl)benzo[b]thiophene-2-carboxamide], the results for the inhibition at 1 µM in test [1] (setting [3]) and in test [2] were ≥ 50% and 49.9%, respectively.

As for `COc1ccc2cc(C(=O)Nc3nc(C)c(O)c(C)c3C)[nH]c2c1` [Compound X-12, N-(5-hydroxy-3,4,6-trimethylpyridin-2-yl)-6-methoxy-1H-indole-2-carboxamide], the inhibition at 1 µM in test [1] (setting [3]) was ≥ 50%; in test [2], 46%.

In the case of `Nc1ccc(O)c(C(=O)O)c1` [Compound 5-ASA, 5-ASA, reference compound], the results for the IC50 in test [1] (inhibition of adhesion by TNF-α) and in test [2] (inhibition of adhesion by IL-6) were 18.1 mM and 25.1 mM, respectively. Also, the “Inhibitory activity (%)” value in test [1] (setting [3]) is 3.8%.

For the molecule `Cc1nc(NC(=O)c2cc3cc(OC(F)(F)F)ccc3[nH]2)c(C)c(C)c1O` [Compound X-11, N-(5-hydroxy-3,4,6-trimethylpyridin-2-yl)-5-(trifluoromethoxy)-1H-indole-2-carboxamide], the inhibition at 1 µM in test [1] (setting [3]) stood at 32.8%; in test [2], 24.2%.

Consider `COc1cccc(C(=O)Oc2c(C)nc(NC(=O)c3sc4cc(F)ccc4c3Cl)c(C)c2C)c1` [XI-10, 6-(3-chloro-6-fluorobenzo[b]thiophene-2-carboxamido)-2,4,5-trimethylpyridin-3-yl 3-methoxybenzoate], for which the inhibition at 1 µM in test [1] (setting [3]) amounted to 46.5%; in test [2], 13.1%.

As to `Cc1nc(NC(=O)c2cc3ccccc3[nH]2)c(C)c(C)c1O` [Compound X-01, N-(5-hydroxy-3,4,6-trimethylpyridin-2-yl)-1H-indole-2-carboxamide], the results for the inhibition at 1 µM in test [1] (setting [3]) and in test [2] were 43.2% and 34%, respectively.

Take `Cc1nc(NC(=O)c2cc3ccc(Br)cc3[nH]2)c(C)c(C)c1O` [Compound X-05, 6-bromo-N-(5-hydroxy-3,4,6-trimethylpyridin-2-yl)-1H-indole-2-carboxamide]: the results for the inhibition at 1 µM in test [1] (setting [3]) and in test [2] were 7.5% and 3.4%, respectively.

Turning to `Cc1nc(NC(=O)c2sc3cc(F)ccc3c2Cl)c(C)c(C)c1OC(=O)c1ccc(F)cn1` [XI-12, 6-(3-chloro-6-fluorobenzo[b]thiophene-2-carboxamido)-2,4,5-trimethylpyridin-3-yl 5-fluoropicolinate], the values for the inhibition at 1 µM in test [1] (setting [3]) and in test [2] were 31.9% and 18%, respectively.

Take `Cc1nc(NC(=O)c2cc3cc(Br)ccc3o2)c(C)c(C)c1O` [Compound X-17, 5-bromo-N-(5-hydroxy-3,4,6-trimethylpyridin-2-yl)benzofuran-2-carboxamide]: the inhibition at 1 µM in test [1] (setting [3]) stood at 8.5%; in test [2], 3.6%.

For `Cc1nc(NC(=O)c2sc3cc(F)ccc3c2Cl)c(C)c(C)c1OCC(=O)NCc1ccccc1` [XI-06, N-(5-(2-(benzylamino)-2-oxoethoxy)-3,4,6-trimethylpyridin-2-yl)-3-chloro-6-fluorobenzo[b]thiophene-2-carboxamide], the results for the inhibition at 1 µM in test [1] (setting [3]) and in test [2] were ≥ 50% and 54.1%, respectively.

Regarding `COc1c(C)nc(NC(=O)c2sc3cc(F)ccc3c2Cl)c(C)c1C` [XI-01, 3-chloro-6-fluoro-N-(5-methoxy-3,4,6-trimethylpyridin-2-yl)benzo[b]thiophene-2-carboxamide], the values for the inhibition at 1 µM in test [1] (setting [3]) and in test [2] were 9.3% and 4.7%, respectively.

For `Cc1nc(NC(=O)c2sc3cc(F)ccc3c2Cl)c(C)c(C)c1OC(=O)C12CC3CC(CC(C3)C1)C2` [XI-16, 6-(3-chloro-6-fluorobenzo[b]thiophene-2-carboxamido)-2,4,5-trimethylpyridin-3-yl (3r,5r,7r)-adamantane-1-carboxylate], the inhibition at 1 µM in test [1] (setting [3]) was 29.2%; in test [2], 20.3%.

For the molecule `COc1cc2cc(C(=O)Nc3nc(C)c(O)c(C)c3C)[nH]c2cc1OC` [Compound X-14, N-(5-hydroxy-3,4,6-trimethylpyridin-2-yl)-5,6-dimethoxy-1H-indole-2-carboxamide], the figures for the inhibition at 1 µM in test [1] (setting [3]) and in test [2] were 36.9% and 29.5%, respectively.

With `Cc1nc(NC(=O)c2sc3cc(F)ccc3c2Cl)c(C)c(C)c1OCC(=O)NC1CC1` [XI-04, 3-chloro-N-(5-(2-(cyclopropylamino)-2-oxoethoxy)-3,4,6-trimethylpyridin-2-yl)-6-fluorobenzo[b]thiophene-2-carboxamide], the inhibition at 1 µM in test [1] (setting [3]) amounted to 13.9%; in test [2], 6.5%.

As for `COc1ccc2c(Cl)c(C(=O)Nc3nc(C)c(O)c(C)c3C)sc2c1` [Compound X-26, 3-chloro-N-(5-hydroxy-3,4,6-trimethylpyridin-2-yl)-6-methoxybenzo[b]thiophene-2-carboxamide], the inhibition at 1 µM in test [1] (setting [3]) was found to be 45.1%; in test [2], 38.4%.

For the molecule `Cc1nc(NC(=O)c2cc3cc(F)ccc3[nH]2)c(C)c(C)c1O` [Compound X-06, 5-fluoro-N-(5-hydroxy-3,4,6-trimethylpyridin-2-yl)-1H-indole-2-carboxamide], the results for the inhibition at 1 µM in test [1] (setting [3]) and in test [2] were 49.9% and 42.9%, respectively.

As for `Cc1nc(NC(=O)c2sc3cc(F)ccc3c2Cl)c(C)c(C)c1OC(=O)c1ccc(F)nc1` [XI-13, 6-(3-chloro-6-fluorobenzo[b]thiophene-2-carboxamido)-2,4,5-trimethylpyridin-3-yl 6-fluoronicotinate], the figures for the inhibition at 1 µM in test [1] (setting [3]) and in test [2] were 20.7% and 15.2%, respectively.

Consider `Cc1nc(NC(=O)c2sc3ccccc3c2Br)c(C)c(C)c1O` [Compound X-22, 3-bromo-N-(5-hydroxy-3,4,6-trimethylpyridin-2-yl)benzo[b]thiophene-2-carboxamide], for which the figures for the inhibition at 1 µM in test [1] (setting [3]) and in test [2] were 26.8% and 19.7%, respectively.

With `Cc1nc(NC(=O)c2sc3cc(Cl)ccc3c2Cl)c(C)c(C)c1O` [Compound X-25, 3,6-dichloro-N-(5-hydroxy-3,4,6-trimethylpyridin-2-yl)benzo[b]thiophene-2-carboxamide], the inhibition at 1 µM was 19.5% in test [1] (setting [3]) and 9% in test [2].

Consider `Cc1nc(NC(=O)c2cc3ccccc3o2)c(C)c(C)c1O` [Compound X-15, N-(5-hydroxy-3,4,6-trimethylpyridin-2-yl)benzofuran-2-carboxamide], for which the inhibition at 1 µM came to 4.8% in test [1] (setting [3]) and 42.4% in test [2].

On to `Cc1nc(NC(=O)c2sc3ccccc3c2Cl)c(C)c(C)c1O` [Compound X-21, 3-chloro-N-(5-hydroxy-3,4,6-trimethylpyridin-2-yl)benzo[b]thiophene-2-carboxamide], for which the inhibition at 1 µM in test [1] (setting [3]) turned out to be 13.4%; in test [2], 11.4%.
